From patent US10945516B2, “Device mounted on mask pack, mask pack and kit comprising the same” (BIOSENSOR LABORATORIES INC., priority 2016, dated 2021)

What was measured:
[1] = format: in vitro ADME; settings: pig, 30 min, 0.5 mM
Description: In particular, first, frozen pig skin purchased from a slaughterhouse was left out at room temperature and thawed for 2 to 3 hours for preparation. Then, hair on the pig skin was removed, and the pig skin was stretched to have elasticity and fixed on a plate with pins. As an experimental group, the mask pack prepared according to an embodiment was applied to the pig skin for 30 minutes, and as a control group, a mask pack on which a RED battery was not mounted was applied to the pig skin for 30 minutes. 0.5 mM of Calcein (having a molecular weight of 622.55 g/mol, available from Sigma-Aldrich), which is a fluorescent agent, was used in a material-containing portion. Thereafter, the pig skin was prepared as samples and fixed for 24 hours by using a fixing solution of 4% paraformaldehyde (pH 7.4 at 4° C.). After the fixing, the samples were sufficiently washed with a PBS (pH 7.4) solution, and embedded with a Tissue-Tek O.C.T. compound (available from Sakura Finetek, USA) and rapidly cooled. The cooled samples were cut to a size of 7 um by using a cryomicrotome (Shandon Cryotome SME Cryostat, Shandon Scientific LTD, Cheshire, England). The cryomicrotomed tissue was washed with a PBS solution, mounted on a mounting solution, covered with a cover slip, and observed using a fluorescent microscope (Axio Observer Z1; Zeiss, Gottingen, Germany), and the results are shown in FIG. 11.

[2] = Degree of absorption of vitamin C by mouse skin from patch (HPLC); format: in vitro ADME; settings: 12.5 mg per patch, 6 hours, hairless mouse back skin
Description: In particular, hairless mouse skin was used to measure a cumulative amount of vitamin C in skin of a mouse. As a control group, a preparation containing vitamin C in a general patch was used. As an experimental group, a preparation containing vitamin C in a patch using reverse electrodialysis was used. A cohesive hydrogel-type patch was prepared by using 3 w/v % Carbopol, and 0.5 mL of a vitamin C-containing cohesive hydrogel was loaded on the patch (an amount of vitamin C was 2.5 w/v %, and an amount of vitamin C loaded per patch was 12.5 mg). Back skin of a 5 week-old mouse (20 to 25 g) was taken, and the patch was mounted thereon. The patch was removed after being incubated for 6 hours, and the skin was carefully separated, quickly washed by using DDW and MeOH, and freeze-stored at −70° C. […] Amounts of vitamin C in the samples were measured by using high-performance liquid chromatography (HPLC) using a mixture of acetonitrile and 0.3 M of KH2PO4 (pH 4) at a ratio of 40:60 as a mobile phase, a Nucleosil NH2 (100 μm) column, a flow rate of 0.8 mL/min, an insertion volume of 20 μL, a UV wavelength of 264 nm, and a column temperature of 25° C., and the results are shown in FIG. 13.

amount of fluorescence that permeated into skin [1] [ng/cm^2]	amount permeated into skin [1]	increase of amount permeated into skin, reverse electrodialysis mask pack compared to passive diffusion [1]	locally remaining amounts of vitamin C of the epidermis layer and the dermis layer ([2]; control group general patch)	increase of locally remaining amounts of vitamin C of the epidermis layer and the dermis layer relative to control group ([2]; reverse electrodialysis patch vs general patch)	Compound
0.47	about 0.05 ng/cm^2	about 7 times	–	–	O=C(O)CN(CC(=O)O)Cc1cc2c(cc1O)Oc1cc(O)c(CN(CC(=O)O)CC(=O)O)cc1C21OC(=O)c2ccccc21 [Calcein]
–	–	–	small	about 3 times	O=C1O[C@H]([C@@H](O)CO)C(O)=C1O [vitamin C]
